Assays:
Vero E6 cells = assay: Cytotoxicity, MTT assay
in vitro = details: African green monkey
SARS-CoV-2 = assay: Time-of-drug-addition assay (qRT-PCR of viral RNA in supernatant); assay type: cell-based; details: 25 µM, Vero E6, MOI 0.01, qRT-PCR 18 h post-infection
Method: To explore which steps of the SARS-CoV-2 replication cycle were interrupted by the test compounds, we performed a time-of-drug-addition assay for compounds 874 and 876, which were selected as representatives with different substituents at positions N1 and N3. Cells were treated with 25 µm of these compounds at various stages of infection (entry, full time and post-entry) which was followed by qRT-PCR assays.
The assays were performed as described previously. Briefly, Vero E6 cells were seeded into 96-well plates and treated with 874 or 876 (25 µM) at different stages of virus infection (full-time, entry and post-entry). The cells were infected with SARS-CoV-2 (MOI = 0.01) and then incubated for 1 h. The viral inoculum was then removed, and the cells were washed twice with PBS. At 18 h post-infection, the cell culture supernatant of each time point experiment was collected for viral yield measurements using qRT–PCR, as described in [31, 33].
Figure 3 Time-of-drug-addition Assay. Vero E6 cells were treated with the compounds at different time points of the viral replication cycle as described in the Materials and Methods chapter. For all experimental groups, cells were infected with SARS-CoV-2 at an MOI of 0.01. Viral RNA copies in the supernatant were quantified by qRT-PCR at 18 h post-infection. All results are shown as mean ± SEM (n = 3). One-way ANOVA with Tukey’s post hoc test: ** p < 0.01, *** p < 0.001 and **** p < 0.0001.

[1] = target: SARS-CoV-2 RdRp (NSP12, NSP7 and NSP8) (Severe acute respiratory syndrome coronavirus 2, UniProt P0DTD1); assay: Inhibition of SARS-CoV-2 RNA-dependent RNA polymerase activity (Profoldin kit); assay type: biochemical
Method: SARS-CoV-2 RdRp activity was inhibited by 876 at 100 µM and 50 µM, by 100% and 60%, respectively (Figure 6).
The activity of SARS-CoV-2 RdRp was assessed using the SARS-CoV-2 RNA-dependent RNA polymerase kit plus (Profoldin #S2RPA100KE), according to the manufacture instructions. In brief, reactions were carried out at 35 °C for 2 h in the presence or absence (control) of the test compound. Then, fluorescent dye was added, and fluorescence was determined using a Qubit fluorimeter (Thermo Fisher, MA, USA). The inhibition of RdRp activity was calculated from the values obtained for control samples.
Figure 6 Uracil Derivative 876 Inhibit the Transcriptional Activity of SARS-CoV-2 RNA-dependent RNA polymerase. Transcriptional inhibition plot of the SARS-CoV-2 replication complex treated with 876 or PBS (control) (n = 3). Results are representative mean ± SEM. One-way ANOVA with Tukey’s post hoc test: *** p < 0.001 and **** p < 0.0001.

In the case of “4-[5-[3-[5-(2-Bromophenoxy)pentyl]-2,6-dioxo-5-methyl-3,6-dihydropyrimidin-1(^2H)-yl]pentyloxy]benzoic acid [Compound 872]”, the CC50 (Vero E6 cells; 72 h) is reported as greater than 50 µM.

Molecule O=C(O)c1ccc(OCCCCn2c(=O)ccn(Cc3ccc(Br)c4ccccc34)c2=O)cc1 [Compound 1006, 4-[4-[3-(4-Bromonaphthyl-1-methyl)-2,6-dioxo-3,6-dihydropyrimidin-1(2H)-yl]butoxy]benzoic acid] has a melting point of 195.5 to 197.5 °C and a CC50 (in vitro) greater than 50 µM.

For O=C(O)c1ccc(OCCCCn2c(=O)ccn(Cc3cccc4ccccc34)c2=O)cc1 [Compound 601, 4-[4-[2,6-Dioxo-3-(naphthyl-1-methyl)-3,6-dihydropyrimidin-1(^2H)-yl]butoxy]benzoic acid], the melting point was 183 to 184.5 °C and the CC50 (in vitro) was greater than 50 µM.

With O=C(O)c1ccc(OCCCCCn2c(=O)ccn(CCCCCOc3ccc(F)cc3)c2=O)cc1 [Compound 870, 4-[5-[3-[5-(4-Fluorophenoxy)pentyl]-2,6-dioxo-3,6-dihydropyrimidin-1(^2H)-yl]pentyloxy]benzoic acid] the melting point was 133 to 135 °C and the CC50 (in vitro) was greater than 50 µM.

For O=C(O)c1ccc(OCCCCCn2c(=O)ccn(CCCCCOc3ccccc3Br)c2=O)cc1 [Compound 871, 4-[5-[3-[5-(2-Bromophenoxy)pentyl]-2,6-dioxo-3,6-dihydropyrimidin-1(^2H)-yl]pentyloxy]benzoic acid], the CC50 (in vitro) was greater than 25 µM and the “Effect on cell proliferation / cell death” value (Vero E6 cells) was “reduced cell proliferation without significant cell death”.

O=c1ccn(Cc2c3ccccc3cc3ccccc23)c(=O)n1CCCCCCOc1ccc(Br)cc1 [Compound 611, 1-(Anthracen-9-ylmethyl)-3-[6-(4-bromophenoxy)hexyl]uracil] showed a CC50 (in vitro) greater than 50 µM.

O=C(O)c1ccc(OCCCCn2c(=O)ccn(CCCOc3ccc(Br)cc3)c2=O)cc1 [Compound 873, 4-[4-[3-[3-(4-Bromophenoxy)propyl]-2,6-dioxo-3,6-dihydropyrimidin-1(^2H)-yl]butoxy]benzoic acid] showed a melting point of 122 to 124 °C and a CC50 (in vitro) greater than 50 µM.

For Cc1cc(C)cc(OCCCCCn2ccc(=O)n(CCCCCOc3ccc(C(=O)O)cc3)c2=O)c1 [Compound 874, 4-[5-[3-[5-(3,5-Dimethylphenoxy)pentyl]-2,6-dioxo-3,6-dihydropyrimidin-1(^2H)-yl]pentyloxy]benzoic acid], the “Production of viral RNA, compound added at entry step” value (SARS-CoV-2) was “did not inhibit the production of viral RNA”, the “Virus replication (viral load in supernatant), compound added full time” value (SARS-CoV-2) was “inhibited virus replication” and the CC50 (in vitro) was greater than 25 µM. For the same molecule, the “Effect on cell proliferation / cell death” value (Vero E6 cells) was “reduced cell proliferation without significant cell death”.

For O=C(O)c1ccc(OCCCn2c(=O)ccn(CCCCCCCCCCCCOc3ccc(Br)cc3)c2=O)cc1 [Compound 1007, 4-[3-[3-[12-(4-Bromophenoxy)dodecyl]-2,6-dioxo-3,6-dihydropyrimidin-1(^2H)-yl]propoxy]benzoic acid], the CC50 (in vitro) was greater than 25 µM and the “Effect on cell proliferation / cell death” value (Vero E6 cells) was “reduced cell proliferation without significant cell death”.

Molecule O=C(O)c1ccc(Cn2c(=O)ccn(CCCCCOc3ccc(Br)cc3)c2=O)cc1 [Compound 875] has a CC50 (in vitro) greater than 50 µM.

For O=C(O)c1ccc(OCCCCCn2c(=O)ccn(Cc3c4ccccc4cc4ccccc34)c2=O)cc1 [Compound 876], the “Production of viral RNA, compound added at entry step” value (SARS-CoV-2) was “did not inhibit the production of viral RNA”, the “Virus replication (viral load in supernatant), compound added full time” value (SARS-CoV-2) was “inhibited virus replication” and the “Viral load, compound added post-entry” value (SARS-CoV-2; post-entry) was “reduced the viral load”. It also gave an inhibition at 50 µM ([1]; 50 µM) of 60%, an inhibition at 100 µM ([1]; 100 µM) of 100% and a melting point of 173 to 176 °C. For the same molecule, the CC50 (in vitro) was greater than 50 µM.

With O=C(O)c1ccc(OCCCCn2c(=O)ccn(Cc3ccc4ccccc4c3)c2=O)cc1 [Compound 1005, 4-[4-[2,6-Dioxo-3-(naphthyl-2-methyl)-3,6-dihydropyrimidin-1(^2H)-yl]butoxy]benzoic acid] the melting point was 143.5 to 145 °C and the CC50 (in vitro) was greater than 50 µM.
